For assay [1], the target named is serum amyloid P component (SAP) (Homo sapiens, UniProt P02743). Put plainly: Inhibition of SAP binding to amyloid fibrils in vitro. To be noted: in vitro inhibition of binding of SAP to amyloid fibrils, protocol of EP 0915088 page 10; read-out: IC50. The text has this:
A method for screening and testing inhibitors of serum amyloid P component (SAP) binding to amyloid fibrils in vitro was devised and used in collaboration with F Hoffmann-La Roche Ltd to identify a suitable lead molecule for drug development. A library of candidate compounds was screened accordingly. The subsequent collaborative medicinal chemistry programme led to synthesis of a family of dicarboxylic acid, pyrrolidone ring containing molecules, of which the most studied is (R)-1-[6-(R)-2-Carboxy-pyrrolidin-1-yl]-6-oxo-hexanoyl]pyrrolidine-2-carboxylic acid. This molecule and related compounds (EP-A-0915088) are modestly potent inhibitors of SAP binding to amyloid fibrils in vitro, with IC50 values around 0.5-1.0 μM.
Further studies determined that each of the following bis-D-Proline compounds were tested for their ability to deplete SAP in vivo as described above. Each of the compounds identified below successfully depleted SAP. In addition, certain of the compounds were further tested for in vitro inhibition of binding of SAP to amyloid fibrils in accordance with the protocol provided in EP 0915088 at page 10, as referenced above. The results are shown in the second column below, where applicable.

For assay [2], the system named is SAP. The assay can be described thus: SAP binding to experimentally induced amyloid deposits in mice. It counts as in vivo, mouse. The text has this:
The potency of (R)-1-[6-(R)-2-Carboxy-pyrrolidin-1-yl]-6-oxo-hexanoyl]pyrrolidine-2-carboxylic acid in vivo was initially considered to be consistent with its lower IC50 value in vitro. However the decameric assembly of pentameric SAP molecules, induced by the cross linking capacity of the palindromic drug, is an abnormal molecular configuration which, according to the present invention, will be recognised in vivo and promptly cleared from the circulation. This action of the drug, leading to massive depletion of SAP from the plasma, makes a critical contribution to removal of SAP from the amyloid deposits because the SAP in amyloid is derived from, and in equilibrium with, the plasma SAP pool.

The target in assay [3] is SAP (Homo sapiens, UniProt P02743). To be noted: known low molecular weight ligands; cited from earlier work.

pIC50: −log10 of the molar value.

Sequence of serum amyloid P component (SAP) (P02743 20-223): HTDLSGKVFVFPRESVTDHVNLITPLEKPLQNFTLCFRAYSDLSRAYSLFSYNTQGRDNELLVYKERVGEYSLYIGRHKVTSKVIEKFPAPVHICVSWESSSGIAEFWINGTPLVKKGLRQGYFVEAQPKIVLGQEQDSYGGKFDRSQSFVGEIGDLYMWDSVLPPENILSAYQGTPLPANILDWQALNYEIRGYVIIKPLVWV
Sequence of SAP (Homo sapiens, UniProt P02743) (P02743 20-223): as above

What is called pIC50 is the IC50 on a negative log10 scale, so that one unit is a factor of ten. Turning to `O=C(O)[C@H]1CCCN1C(=O)c1ccc(C(=O)N2CCC[C@@H]2C(=O)O)cc1`, the pIC50 in assay [1] was 6.15. In the case of `O=C(O)[C@H]1CCCN1C(=O)Cc1cccc(CC(=O)N2CCC[C@@H]2C(=O)O)c1`, the pIC50 in assay [1] was 6.15. On the same count and under the same terms, the value for `Cc1c(OCC(=O)N2CCC[C@@H]2C(=O)O)cccc1OCC(=O)N1CCC[C@@H]1C(=O)O` was 6.30; that for `O=C(O)[C@H]1CCCN1C(=O)COc1ccc(OCC(=O)N2CCC[C@@H]2C(=O)O)cc1` was 6.52. For `O=C(O)[C@H]1CCCN1C(=O)Cc1ccc(CC(=O)N2CCC[C@@H]2C(=O)O)cc1`, the pIC50 in assay [1] was 6.46. On the same count and under the same terms, the figure for `O=C(O)[C@H]1CCCN1C(=O)COc1ccccc1OCC(=O)N1CCC[C@@H]1C(=O)O` is 6.40. On to `CC(CS)C(=O)N1CCC[C@@H]1C(=O)O` (stereo partly drawn) [1-(3-Mercapto-2-methyl-1-oxopropyl)-D-proline], for which, in the assay with SAP [2], the “Binding of SAP to experimentally induced amyloid deposits” value is listed as “inhibits binding of SAP” and the “Dissociation of SAP already bound in amyloid deposits” value is given as “dissociates SAP that is already bound in the deposits”. Consider `CO[C@@H]1O[C@@H]2COC(C)(C(=O)O)O[C@@H]2[C@H](O)[C@H]1O` (stereo partly drawn) [MOβDG, methyl 4,6-O-(1-carboxyethylidene)-β-D-galactopyranoside], for which the “Affinity of binding by SAP” value at SAP [3] is “about millimolar”. `NCCOP(=O)(O)O` [phosphoethanolamine]: on SAP [3], the “Affinity of binding by SAP” value is on record as “about millimolar”.

Values taken from patent US8173694B2, “Therapeutic agent” (Pentraxin Therapeutics Limited, priority 2001, dated 2012).
